Assay results taken from US20030118577A1, “Use of analogues of superoxide dismutase for treating hepatocellular insufficiencies” (priority 2000, published 2003).

System: acute hepatic insufficiency induced by acetaminophen
Test: Assay of serum transaminases ALAT and ASAT after acetaminophen
Type: in vivo, mice
Conditions: MnTBAP 10 mg/kg 2 h before, after 24 hours
Protocol: The serum transaminases ALAT and ASAT are assayed 12 hours and 24 hours after the administration of acetaminophen.
Since the results risked being biased by the fact that the mice surviving 24 hours after the administration of acetaminophen were probably, regardless of the group involved, those which had the lowest transaminase activity, a second series of experiments were carried out, administering 500 mg/kg of acetaminophen, the other experimental conditions remaining the same. At this dosage, all the mice were still alive after 24 hours.
The results are illustrated by FIGS. 2A and 2B, which represent the ASAT and ALAT activity, respectively, according to the products administered.

O=C(O)c1ccc(-c2c3nc(c(-c4ccc(C(=O)O)cc4)c4ccc([n-]4)c(-c4ccc(C(=O)O)cc4)c4nc(c(-c5ccc(C(=O)O)cc5)c5ccc2[n-]5)C=C4)C=C3)cc1.[Mn+3] [MnTBAP, Mn(III) tetrakis(5,10,15,20-benzoic acid)porphyrin]
transaminase activities (ASAT, ALAT), fold lower than without MnTBAP (acetaminophen 500 mg/kg (APAP500)): 10 fold | transaminase activities (ASAT, ALAT), fold lower than without MnTBAP (acetaminophen 1000 mg/kg (APAP1000)): 6 fold
